According to PubChem BioAssay (NCI):
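1) Cells in 96-well plates. 2) Compound, 48 h, 5 concentrations. 3) Linear interpolation between surrounding doses. 4) Unreached endpoint = highest concentration. Abbreviation: GI50, concentration required for 50% inhibition of growth. TGI marks complete inhibition of growth.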

Tests used:
Test in all cases: inhibition of tumour cell growth, NCI panel, 48 h
NCI-H460 lung = tested on: NCI-H460 lung
RXF 393 renal = tested on: RXF 393 renal
SF-295 CNS = tested on: SF-295 CNS
U251 CNS = tested on: U251 CNS
OVCAR-3 ovarian = tested on: OVCAR-3 ovarian
COLO 205 colon = tested on: COLO 205 colon
KM12 colon = tested on: KM12 colon
UACC-62 melanoma = tested on: UACC-62 melanoma
LOX IMVI melanoma = tested on: LOX IMVI melanoma
HCC-2998 colon = tested on: HCC-2998 colon

Row | Structure (SMILES) | GI50 (NCI-H460 lung) [µM] | TGI (NCI-H460 lung) [µM] | GI50 (RXF 393 renal) [µM] | TGI (RXF 393 renal) [µM] | GI50 (SF-295 CNS) [µM] | TGI (SF-295 CNS) [µM] | GI50 (U251 CNS) [µM] | TGI (U251 CNS) [µM] | GI50 (OVCAR-3 ovarian) [µM] | TGI (OVCAR-3 ovarian) [µM] | GI50 (COLO 205 colon) [µM] | TGI (COLO 205 colon) [µM] | GI50 (KM12 colon) [µM] | TGI (KM12 colon) [µM] | GI50 (UACC-62 melanoma) [µM] | TGI (UACC-62 melanoma) [µM] | GI50 (LOX IMVI melanoma) [µM] | TGI (LOX IMVI melanoma) [µM] | GI50 (HCC-2998 colon) [µM] | TGI (HCC-2998 colon) [µM]
1 | O=C1/C(=C/c2ccc([N+](=O)[O-])cc2)COc2ccc(O)cc21 | 9.03 | > 100 | 2.45 | 17.7 | > 100 | > 100 | 1.99 | 4.13 | 3.26 | 11.8 | 10.7 | 55.7 | 2.15 | 5.25 | 9.02 | 34.5 | 1.68 | 3.23 | 1.74 | 3.21
2 | O=C1c2cccc3cccc(c23)C(=O)N1O | – | > 100 | – | 68.5 | – | > 100 | – | > 100 | – | > 100 | – | > 100 | – | > 100 | – | > 100 | – | > 100 | – | > 100
3 | Cc1ccc(NC(=O)/C(Cc2nc3ccc([N+](=O)[O-])cc3[nH]c2=O)=N\NC(=O)C[n+]2ccccc2)c(C)c1 | – | > 100 | – | 73.1 | – | > 100 | – | > 100 | – | 59.3 | – | > 100 | – | > 100 | – | > 100 | – | > 100 | – | > 100
4 | CC(=O)[CH-]C(=O)c1ccccc1.CC(=O)[CH-]C(=O)c1ccccc1.CC1(C)OCC(C2OC3OC(C)(C)OC3C2[O-])O1.CC[O-].[Ti+4] (stereo not given) | 10.8 | 24.8 | 3.36 | 14.9 | 17.1 | 31.6 | 13.1 | 28.3 | 11.7 | 30.2 | 17 | 32.5 | 11.4 | 26.8 | 14.2 | 28.8 | 14.7 | 29.8 | 15.4 | 29.9
5 | Nc1ccccc1C(=O)C(Br)C(Br)c1ccc2c(c1)OCO2 (stereo not given) | – | 39.2 | – | 49.9 | – | > 100 | – | 49.6 | – | 36.1 | – | 27.4 | – | 33.8 | – | 35.2 | – | 27.8 | – | 42.5
6 | CC1(C)CC(=O)C(CC2C(=O)c3ccccc3C2=O)C(=O)C1 | – | > 100 | – | > 100 | – | > 100 | – | > 100 | – | > 100 | – | > 100 | – | > 100 | – | > 100 | – | > 100 | – | > 100
7 | CC1(O)CCn2c(=O)c3cc4ccccc4cc3c(=O)n2C1O (stereo not given) | – | > 100 | – | > 100 | – | > 100 | – | > 100 | – | > 100 | – | > 100 | – | > 100 | – | > 100 | – | > 100 | – | > 100
8 | Cc1cc(C)n(C2=NS(=O)(=O)c3ccccc3N2C)n1 | – | > 100 | – | > 100 | – | > 100 | – | > 100 | – | > 100 | – | > 100 | – | > 100 | – | > 100 | – | > 100 | – | > 100
9 | Cc1c(C)c(CC(=O)N2CC2)c(C)c(C)c1CC(=O)N1CC1 | – | 50.2 | – | 12.8 | – | 60.5 | – | > 67.3 | – | 51.4 | – | 29.5 | – | 40.3 | – | 17.2 | – | > 49 | – | 25.2
10 | O=C(CC1(O)C(=O)Nc2c(Cl)ccc(Cl)c21)c1ccc(Cl)cc1Cl (stereo not given) | – | 38.3 | – | 42.3 | – | 41.6 | – | 21.9 | – | 30.9 | – | 31.7 | – | 30.9 | – | 34.9 | – | 28.3 | – | 32.2
11 | O=C1[C@H]2ON(c3ccccc3)C(c3ccco3)[C@H]2C(=O)N1c1ccc(Cc2ccc(N3C(=O)[C@@H]4ON(c5ccccc5)C(c5ccco5)[C@@H]4C3=O)cc2)cc1 (stereo not given in full) | – | > 100 | – | > 100 | – | > 100 | – | > 100 | – | > 100 | – | > 100 | – | > 100 | – | > 100 | – | > 100 | – | > 100
